Assay results taken from patent US4748161A, “Triterpenyl esters of organic acids and hypolipidemic agents composed of them” (Amano Pharmaceutical Co., Ltd., priority 1984, dated 1988).

Tested on: serum lipids and serum lipid hydroperoxide
Test: Pharmacological test method A for anti-hyperlipidemic activity (serum lipids, 2 weeks feeding)
Assay type: in vivo, male Wistar strain rats
Conditions: for AI [(TC - HDL-C)/(HDL-C)] / HDL-C in serum / LPO in serum / PL in serum / TC in serum / TG in serum: 1% in hyperlipidemic diet, 2 weeks; for AI % of diff. / AI Diff. / HDL-C % of diff. / HDL-C Diff. / LPO % of diff. / LPO Diff. / PL % of diff. / PL Diff. / TC % of diff. / TC Diff. / TG % of diff. / TG Diff.: versus control group
Method: Male Wistar strain rats (100±lg, each 10 rats were formed into a group) were used as test animals. Diet for the control group was prepared by thorough mixing of 20% casein, 62.5% glucose, 10% hydrogenated coconut oil, 2% agar powder, 4% vitamin-containing salt mixture, 1% cholesterol, and 0.5% cholic acid (this composition is described by Fukushima et al, in "Yakugaku Zassi", 89, No. 6, pp. 857-862 (1962)). Diet for the test groups was prepared by good mixing of 1% each of cycloartenol, 24-methylenecycloartanol, and cyclobranol with the control group's diet. Each rat was kept in a cage at a constant temperature of 23±1° C. and a constant R.H. of 55±5% for 2 weeks, during which 10 g/day of the prescribed was given. Finally the rats were fasted from food except water for 16 hours (from 4 p.m. of the 14th test day to 8 a.m. of the 15th test day), and under anesthesia with pentbarbital sodium (tradename: Nembutal), blood was taken from each rat through the descending abdominal arota. Then, TC, HDL-C, TG, PL, and LPO in the serum were measured in the manner that will be described below.
A TC kit-K (supplied by Nippon Shoji Kaisha, Ltd.) was used. The principle of this determination is as follows: The ester of cholesterol in the serum is hydrolyzed with cholesterol-ester hydrolase into free cholesterol and fatty acids. All the free cholesterol is oxidized with cholesterol oxydase to form Δ^4 -cholestenone and hydrogen peroxide. Phenol and 4-aminoantipyrin are oxidatively condensed together by the formed hydrogen peroxide and peroxydase. The produced red quinone coloring matter is measured by colorimetry for absorbance at 500 nm using a spectrophotometer, thereby determining the TC:
The color-developing liquid (3.0 ml) is well mixed with the sample serum (0.02 ml). The mixture once heated at 37° C. for 15 minutes, is measured for absorbance at 500 nm with a spectrophotometer. The found absorbance is denoted by EA. On the other hand, the color-developing liquid (3.0 ml) is well mixed with the standard solution. The mixture is treated and measured for absorbance at 500 nm in the same manner as the above. This found absorbance is denoted by ES. Both EA and ES are determined with reference to the value of the blank test conducted using the color-developing liquid (3.0 ml) alone. [formula]
An HDL-C kit-N (supplied by Nippon Shoji Kaisha, Ltd.) was used. […] (VLDL) and lo density lipoprotein (LDL) in the serum is precipitated by the action of heparin. The precipitate is separated by centrifugation. High density lipoprotein (HDL) is dissolved in the separated supernatant. Esters of cholesterol in this fraction is hydrolyzed with cholesterol-ester hydrolase into free cholesterol and fatty acids. All the free cholesterol is oxidized with cholesterol oxydase to form Δ^4 -cholestenone and hydrogen peroxide. Phenol and 4-aminoantipyrine are oxidatively condensed together by the formed hydrogen peroxide and peroxydase. The produced red quinone coloring matter is measured by colorimetry for absorbance at 500 nm using a spectrophotometer, thereby determining the HDL-C.
A PL kit-K (supplied by Nippon Shoji Kaisha, Ltd.) was used for the determination. Lecithin, sphingomyelin, and lysolecithin are decomposed by phospholipase D into choline and phosphatidic acid, N-acylsphingosyl phosphate, or lysophosphatidic acid, respectively. The resulting choline is quantitatively decomposed by choline oxydase into hydrogen peroxide and betaine. With this hydrogen peroxide, and aid of peroxydase, phenol and 4-aminoantipyrin are condensed into red quinone pigment, then the absorbance at 500 nm of which is measured with a spectrophotometer, thereby determining the PL.
Serum TG level was determined by means of a triglyceride test kit (supplied by Wako Pure Chemical Industries, Ltd.) in which acetylacetone is used for a reagent, in the following manner: Serum proteins are precipitated, when isopropyl alcohol and the sample serum are mixed. […]

SMILES	AI [(TC - HDL-C)/(HDL-C)]	HDL-C in serum [mg/dL]	LPO in serum [nmol/mL]	PL in serum [mg/dL]	TC in serum [mg/dL]	TG in serum [mg/dL]	AI % of diff. [%]	AI Diff.	HDL-C % of diff.	HDL-C Diff.	LPO % of diff. [%]	LPO Diff. [nmol/mL]	PL % of diff. [%]	PL Diff. [mg/dL]	TC % of diff. [%]	TC Diff. [mg/dL]	TG % of diff. [%]	TG Diff. [mg/dL]
CC(C)=CCCC(C)C1CCC2(C)C3CCC4C(C)(C)C(OC(=O)c5cccnc5)CCC45CC35CCC12C (stereo not drawn) [Example 24, cycloartenyl nicotinate]	0.748	94.0	1.93	133.8	164.3	34.7	-38.8	-0.474	+8.7%	+7.5 mg/dl	-13.7	-0.31	-22.5	-38.8	-14.5	-27.9	4.3	-1.6
C=C(CCC(C)C1CCC2(C)C3CCC4C(C)(C)C(OC(=O)c5ccc(O)c(OC)c5)CCC45CC35CCC12C)C(C)C (stereo not drawn) [Example 86, 24-Methylenecycloartanyl ester of 4-hydroxy-3-methoxybenzoic acid]	0.802	91.9	2.06	163.2	165.6	33.1	-20.0	-0.200	-4.5%	-4.3 mg/dL	-11.6	-0.27	-9.8	-17.7	-14.0	-27.0	-0.3	-0.1
CCCCC/C=C\C/C=C\CCCCCCCC(=O)OC1CCC23CC24CCC2(C)C(C(C)CCC(C)=C(C)C)CCC2(C)C4CCC3C1(C)C (stereo not drawn) [Example 51, cyclobranyllinolate]	0.623	96.4	1.69	146.0	156.5	34.7	-49.0	-0.599	+11.5%	+9.9 mg/dl	-24.4	-0.55	-15.4	-26.6	-18.6	-35.7	-4.3	-1.6
CC(C)=C(C)CCC(C)C1CCC2(C)C3CCC4C(C)(C)C(OC(=O)c5cccnc5)CCC45CC35CCC12C (stereo not drawn) [Example 50, cyclobranylnicotinate]	0.697	95.7	1.87	138.8	162.4	34.7	-43.0	-0.525	10.6%	+9.2 mg/dl	-16.7	-0.37	-19.6	-33.8	-15.5	-29.8	-4.3	-1.6
COc1cc(C(=O)OC2CCC34CC35CCC3(C)C(C(C)CCC=C(C)C)CCC3(C)C5CCC4C2(C)C)ccc1O (stereo not drawn) [Example 29, cycloartenyl-4-hydroxy-3-methoxybenzoate]	0.611	101.0	1.95	160.6	162.7	32.7	-39.0	-0.391	+5.0%	+4.8 mg/dl	-16.3	-0.38	-11.2	-20.3	-15.5	-29.9	-1.5	-0.5
CC(C)=C(C)CCC(C)C1CCC2(C)C3CCC4C(C)(C)C(OC(=O)c5ccc(O)c(O)c5)CCC45CC35CCC12C (stereo not drawn) [Example 39, cyclobranyl-3,4-dihydroxybenzoate]	0.803	98.1	1.99	155.1	176.9	39.8	-52.3	-0.881	+21.2%	+17.2 mg/dl	-14.0	-0.32	-13.7	-24.6	-18.5	-40.2	-6.9	-3.0
C=C(CCC(C)C1CCC2(C)C3CCC4C(C)(C)C(OC(=O)C=Cc5ccc(OC(C)=O)cc5)CCC45CC35CCC12C)C(C)C (stereo not drawn) [Example 83, 24-Methylenecycloartanyl ester of p-acetoxycinnamic acid]	1.059	93.3	2.02	162.1	192.1	41.1	-37.1	-0.625	+15.3%	+12.4 mg/dl	-12.7	-0.29	-9.8	-17.6	-11.5	-25.0	-4.0	-1.7
